Assay results reported in patent US9770452B2, “Quinoxaline derivatives as GPR6 modulators” (Takeda Pharmaceutical Company Limited, priority 2012, dated 2017).
Structures can show the parent of a compound that is named as a salt.

Target: T1, GPR6 receptor (Homo sapiens, UniProt P46095)
T1 construct: expressed in transfected cells
Assay: Inhibition of cAMP Activity of GPR6 In Vitro Assay (CHO-K1 cells, HTRF cAMP)
Type: cell-based
Settings: compounds of Compound Table 1; inhibition of constitutive cAMP activity of GPR6 expressed in CHO-K1 cells; approximate IC50; read-out: IC50
Protocol: Inhibition of cAMP Activity of GPR6 In Vitro Assay
This cell based assay measures the ability of compounds to inhibit the constitutive cAMP activity of GPR6 receptor expressed in CHO-K1 cells. CHO cells were stably expressed with GPR6 receptor, whose expression is controlled by a tetracycline inducable element. The cells were cultured in medium containing F12K, 10% FBS, 1% Penn/Strep, 200 ug/mL Hygromycin. GPR6 receptor expression was induced for 20 hrs with 1 μg/ml doxycycline (sigma D9891) in growth media. After addition of doxycycline cells were plated at a density of 250-500 cells per well in half-volume black clear bottom plates (Costar) and place in an incubator (37°, 5% C(O)2) for 20 hours prior to cAMP assays.
Culture media was removed from cells and they were washed with 50 μL of Ringer's Buffer (MgCl2 0.047 mg/mL, NaH2PO4 0.18 mg/mL, Na2HPO4 0.1 mg/mL, KCl 0.34 mg/mL, NaHC(O)3 1.26 mg/mL, D-glucose 1.8 mg/mL, NaCl 7 mg/mL; pH=7.4). Compounds suspended in DMSO were diluted in Ringer's Buffer containing 0.5% fatty acid free BSA and incubated on cells for 45 min at […] and 5% C(O)2. After incubation cells were incubated for 10 min at room temp with Eu-cAMP tracer solution from a Perkin Elmer Lance HTRF UltracAMP assay kit (TRF0264). Then ULight™-anti-cAMP solution from the Lance HTRF kit was added and incubated on a shaker at room temp for 1 hour prior to HTRF detection in a BMG PolarStar Omega.
IC50 curves were generated with a four-parameter logistic equation using GraphPad Prism 5.03.

T1 sequence (P46095 whole entry): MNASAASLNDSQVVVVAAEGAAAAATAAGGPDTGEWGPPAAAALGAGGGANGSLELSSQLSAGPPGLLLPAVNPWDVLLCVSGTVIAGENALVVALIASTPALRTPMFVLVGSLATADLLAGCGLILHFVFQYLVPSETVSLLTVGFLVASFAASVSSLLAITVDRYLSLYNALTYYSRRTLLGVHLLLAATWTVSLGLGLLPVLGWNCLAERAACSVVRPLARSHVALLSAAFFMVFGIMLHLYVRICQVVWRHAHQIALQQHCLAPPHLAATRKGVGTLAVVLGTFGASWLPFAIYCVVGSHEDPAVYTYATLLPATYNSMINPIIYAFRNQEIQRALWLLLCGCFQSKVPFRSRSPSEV

Row | Compound | IC50
1 | 3-(4-(2-fluoro-4-methoxyphenoxy)piperidin-1-yl)-N-isopropylpyrido[3,4-b]pyrazin-2-amine, 2,2,2-trifluoroacetic acid salt [Cpd 616] | 939 nM
2 | 3-(4-(4-chloro-2-fluorophenoxy)piperidin-1-yl)-2-(isopropylamino)-N,N-dimethylpyrido[3,4-b]pyrazine-7-carboxamide, 2,2,2-trifluoroacetic acid salt [Cpd 630] | 7 nM
3 | 3-(4-((2-chloro-4-(trifluoromethyl)phenyl)sulfonyl)piperazin-1-yl)-2-(cyclopropylamino)quinoxaline-6-carbonitrile, 2,2,2-trifluoroacetic acid salt [Cpd 330] | 29 nM
4 | 3-(4-(2-fluoro-4-methoxyphenoxy)piperidin-1-yl)-2-(isopropylamino)pyrido[3,4-b]pyrazine-7-carbonitrile, 2,2,2-trifluoroacetic acid salt [Cpd 628] | 276 nM
5 | 3-(4-(2,5-dichlorobenzyl)piperazin-1-yl)-2-(isoxazol-3-ylamino)quinoxaline-6-carbonitrile, 2,2,2-trifluoroacetic acid salt [Cpd 340] | 15400 nM
6 | 6-bromo-N-cyclopropyl-3-(4-((2,5-difluorophenyl)fluoromethyl)piperidin-1-yl)quinoxalin-2-amine, 2,2,2-trifluoroacetic acid salt [Cpd 500] | 160 nM
7 | 4-((1-(3-(cyclopropylamino)pyrazino[2,3-d]pyridazin-2-yl)piperidin-4-yl)oxy)-3-fluorophenol [Cpd 623] | 39 nM
8 | (S)—N-cyclopropyl-3-(4-((2,4-difluorophenyl)fluoromethyl)piperidin-1-yl)pyrazino[2,3-d]pyridazin-2-amine, 2,2,2-trifluoroacetic acid salt [Cpd 594] | 31 nM
9 | 3-(cyclopropylamino)-2-(4-(2,5-dichlorobenzyl)piperazin-1-yl)quinoxaline-5-carbonitrile, 2,2,2-trifluoroacetic acid salt [Cpd 248] | 1850 nM
10 | 1-(4-((1-(2-(cyclopropylamino)pyrido[3,4-b]pyrazin-3-yl)piperidin-4-yl)oxy)phenyl)ethanone, 2,2,2-trifluoroacetic acid salt [Cpd 582] | 7 nM
11 | (R)-2-(cyclopropylamino)-3-(4-((2,4-difluorophenyl)fluoromethyl)piperidin-1-yl)-N,N-dimethylpyrido[3,4-b]pyrazine-7-carboxamide, 2,2,2-trifluoroacetic acid salt [Cpd 578] | 7210 nM
12 | Cc1cccc(CN2CCN(c3nc4cccnc4nc3NC3CC3)CC2)c1 [Cpd 2, N-cyclopropyl-2-(4-(3-methylbenzyl)piperazin-1-yl)pyrido[2,3-b]pyrazin-3-amine, 2,2,2-trifluoroacetic acid salt] | 45400 nM
13 | c1ccc2nc(N3CCN(Cc4ccncc4)CC3)c(NC3CC3)nc2c1 [Cpd 17, N-cyclopropyl-3-(4-(pyridin-4-ylmethyl)piperazin-1-yl)quinoxalin-2-amine, 2,2,2-trifluoroacetic acid salt] | 25900 nM
14 | O=C(c1ccc(F)c(Br)c1)N1CCN(c2nc3ccccc3nc2NC2CC2)CC1 [Cpd 89, (3-bromo-4-fluorophenyl)(4-(3-(cyclopropylamino)quinoxalin-2-yl)piperazin-1-yl)methanone, 2,2,2-trifluoroacetic acid salt] | 4780 nM
15 | 3-(4-(2,5-dichlorobenzyl)piperazin-1-yl)-N-(pyridin-4-yl)quinoxalin-2-amine, 2,2,2-trifluoroacetic acid salt [Cpd 214] | 1470 nM
16 | 4-chloro-3-(1-(7-chloro-2-(cyclopropylamino)pyrido[3,4-b]pyrazin-3-yl)piperidine-4-carbonyl)benzonitrile [Cpd 595] | 478 nM
17 | 2-((2,2-difluoroethyl)amino)-3-(4-(2,4-difluorophenoxy)piperidin-1-yl)quinoxaline-6-carbonitrile [Cpd 513] | 71 nM
18 | 3-(4-((4-chloro-2,5-dimethylphenyl)sulfonyl)piperazin-1-yl)-2-(cyclopropylamino)quinoxaline-6-carbonitrile, 2,2,2-trifluoroacetic acid salt [Cpd 281] | 960 nM
19 | 3-(cyclopropylamino)-2-(4-((2,5-difluorophenyl)fluoromethyl)piperidin-1-yl)quinoxaline-6-carbonitrile, 2,2,2-trifluoroacetic acid salt [Cpd 484] | 29 nM

Row | Compound | IC50
20 | (S)—N-cyclopropyl-3-(4-((2,4-difluorophenyl)fluoromethyl)piperidin-1-yl)-7-methylpyrido[3,4-b]pyrazin-2-amine, 2,2,2-trifluoroacetic acid salt [Cpd 502] | 1430 nM
21 | 3-(4-(2,4-difluorophenoxy)piperidin-1-yl)-N-isopropylpyrazino[2,3-d]pyridazin-2-amine, 2,2,2-trifluoroacetic acid salt [Cpd 632] | 28 nM
22 | 2-((1-(2-(cyclopropylamino)pyrido[3,4-b]pyrazin-3-yl)piperidin-4-yl)oxy)benzonitrile [Cpd 574] | 4810 nM
23 | 2-((2,2-difluoroethyl)amino)-3-(4-(2,4-difluorophenoxy)piperidin-1-yl)-N,N-dimethylpyrido[3,4-b]pyrazine-7-carboxamide, 2,2,2-trifluoroacetic acid salt [Cpd 649] | 44 nM
24 | Clc1ccc(NC2CCN(c3nc4ccccc4nc3NC3CC3)CC2)cc1 [Cpd 413, 3-(4-((4-chlorophenyl)amino)piperidin-1-yl)-N-cyclopropylquinoxalin-2-amine, 22,2,2-trifluoroacetic acid salt] | 19 nM
25 | 2-(cyclopropylamino)-3-(4-(2,5-difluorobenzyl)piperazin-1-yl)quinoxaline-6-carbonitrile, 2,2,2-trifluoroacetic acid salt [Cpd 257] | 310 nM
26 | N-cyclopropyl-3-(4-(2,4-difluorobenzyl)piperidin-1-yl)pyrido[3,4-b]pyrazin-2-amine, 2,2,2-trifluoroacetic acid salt [Cpd 414] | 390 nM
27 | (1-(2-(cyclopropylamino)pyrido[3,4-b]pyrazin-3-yl)piperidin-4-yl)(2-fluoro-5-(methylthio)phenyl)methanone, 2,2,2-trifluoroacetic acid salt [Cpd 593] | 23 nM
28 | (2-chloro-5-fluorophenyl)(1-(2-(cyclopropylamino)pyrido[3,4-b]pyrazin-3-yl)piperidin-4-yl)methanone, 2,2,2-trifluoroacetic acid salt [Cpd 567] | 5780 nM
29 | N-cyclopropyl-3-(4-(2,5-difluorophenoxy)piperidin-1-yl)pyrido[3,4-b]pyrazin-2-amine, 2,2,2-trifluoroacetic acid salt [Cpd 431] | 170 nM
30 | (R)-3-(4-((2,4-difluorophenyl)fluoromethyl)piperidin-1-yl)-N-isopropylpyrazino[2,3-d]pyridazin-2-amine, 2,2,2-trifluoroacetic acid salt [Cpd 640] | 72 nM
31 | C[C@@H]1C[C@H]1Nc1nc2cnncc2nc1N1CCC([C@@H](F)c2ccc(F)cc2F)CC1 [Cpd 645, 3-(4-((R)-(2,4-difluorophenyl)fluoromethyl)piperidin-1-yl)-N-((1R,2R)-2-methylcyclopropyl)pyrazino[2,3-d]pyridazin-2-amine, 2,2,2-trifluoroacetic acid salt] | 145 nM
32 | O=C(c1cc2nc(NC3CC3)c(N3CCC([C@H](F)c4ccc(F)cc4F)CC3)nc2cn1)N1CCC1 [Cpd 591, (S)-azetidin-1-yl(2-(cyclopropylamino)-3-(4-((2,4-difluorophenyl)fluoromethyl)piperidin-1-yl)pyrido[3,4-b]pyrazin-7-yl)methanone] | 22 nM
33 | N-cyclopropyl-3-(4-(4-fluoro-2-methylbenzyl)piperazin-1-yl)quinoxalin-2-amine, 2,2,2-trifluoroacetic acid salt [Cpd 157] | 105000 nM
34 | (R)-2-((3-(4-(2,5-dichlorobenzyl)piperazin-1-yl)quinoxalin-2-yl)amino)propan-1-ol, 2,2,2-trifluoroacetic acid salt [Cpd 172] | 2340 nM
35 | (4-chloro-3-methylphenyl)(4-(3-(pyridin-3-ylamino)quinoxalin-2-yl)piperazin-1-yl)methanone, 2,2,2-trifluoroacetic acid salt [Cpd 230] | 800 nM
36 | 3-(4-(5-chloro-2-fluorobenzoyl)piperidin-1-yl)-2-(cyclopropylamino)quinoxaline-6-carbonitrile, 2,2,2-trifluoroacetic acid salt [Cpd 469] | 90 nM
37 | 2-(cyclopropylamino)-3-(4-((4-(trifluoromethoxy)phenyl)sulfonyl)piperazin-1-yl)quinoxaline-6-carbonitrile, 2,2,2-trifluoroacetic acid salt [Cpd 283] | 420 nM
